Here are results for one compound from patent publication US8217063B2, “Lactam-substituted dicarboxylic acids and use thereof” (Bayer Intellectual Property GmbH, priority 2007, dated 2012).

For orientation: IC50 means the point on the concentration scale where inhibition reaches its midpoint.

Experiment [1] has as its system saphenous artery. Put plainly: Vasorelaxant effect in vitro (phenylephrine-contracted artery rings). The arrangement: species or system Rabbits. The following applies: Oryctolagus cuniculus; rabbit saphenous artery rings, contraction induced by phenylephrine. As for the experimental part:
B-1. Vasorelaxant Effect In Vitro:
Rabbits are anesthetized and sacrificed by intravenous injection of thiopental sodium (about 50 mg/kg) and exsanguinated. The saphenous artery is removed and divided into rings 3 mm wide. The rings are mounted singly on in each case a pair of triangular hooks open at the end and made of 0.3 mm-thick special wire (Remanium®). Each ring is placed under an initial tension in 5 ml organ baths with Krebs-Henseleit solution which is at 37° C., is gassed with carbogen and has the following composition: NaCl 119 mM; KCl 4.8 mM; CaCl2×2H2O 1 mM; MgSO4×7H2O 1.4 mM; KH2PO4 1.2 mM; NaHCO3 25 mM; glucose 10 mM; bovine serum albumin 0.001%. The force of contraction is detected with Statham UC2 cells, amplified and digitized via A/D converters (DAS-1802 HC, Keithley Instruments, Munich) and recorded in parallel on chart recorders. Contractions are induced by addition of phenylephrine.
After several (generally 4) control cycles, the substance to be investigated is added in each further run in increasing dosage, and the height of the contraction achieved under the influence of the test substance is compared with the height of the contraction reached in the last preceding run. The concentration necessary to reduce the contraction reached in the preceding control by 50% is calculated from this (IC50). The standard application volume is 5 μl. The proportion of DMSO in the bath solution corresponds to 0.1%.

Experiment [2] has as its target T1, Heme-containing sGC (Rattus norvegicus, UniProt P20595).
T1 construct: made in house; host or cells: baculovirus/Sf9
T1 sequence (P20595 1-619): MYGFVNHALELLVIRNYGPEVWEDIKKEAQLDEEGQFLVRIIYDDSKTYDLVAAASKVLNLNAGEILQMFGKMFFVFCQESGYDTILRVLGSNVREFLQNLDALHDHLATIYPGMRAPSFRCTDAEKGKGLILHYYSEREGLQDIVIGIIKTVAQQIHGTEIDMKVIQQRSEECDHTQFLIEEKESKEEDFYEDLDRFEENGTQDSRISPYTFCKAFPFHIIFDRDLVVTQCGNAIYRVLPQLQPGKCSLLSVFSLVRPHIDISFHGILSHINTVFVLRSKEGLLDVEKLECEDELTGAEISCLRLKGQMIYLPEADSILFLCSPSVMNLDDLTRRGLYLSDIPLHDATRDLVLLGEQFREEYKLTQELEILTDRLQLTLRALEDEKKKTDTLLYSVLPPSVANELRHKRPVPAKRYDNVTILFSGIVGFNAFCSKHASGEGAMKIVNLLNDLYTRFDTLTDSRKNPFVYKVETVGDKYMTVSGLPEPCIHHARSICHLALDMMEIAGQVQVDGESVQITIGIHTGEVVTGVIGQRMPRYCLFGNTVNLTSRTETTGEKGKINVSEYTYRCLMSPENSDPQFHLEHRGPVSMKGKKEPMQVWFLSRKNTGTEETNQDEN
T1 sequence (P19686 1-690 partner): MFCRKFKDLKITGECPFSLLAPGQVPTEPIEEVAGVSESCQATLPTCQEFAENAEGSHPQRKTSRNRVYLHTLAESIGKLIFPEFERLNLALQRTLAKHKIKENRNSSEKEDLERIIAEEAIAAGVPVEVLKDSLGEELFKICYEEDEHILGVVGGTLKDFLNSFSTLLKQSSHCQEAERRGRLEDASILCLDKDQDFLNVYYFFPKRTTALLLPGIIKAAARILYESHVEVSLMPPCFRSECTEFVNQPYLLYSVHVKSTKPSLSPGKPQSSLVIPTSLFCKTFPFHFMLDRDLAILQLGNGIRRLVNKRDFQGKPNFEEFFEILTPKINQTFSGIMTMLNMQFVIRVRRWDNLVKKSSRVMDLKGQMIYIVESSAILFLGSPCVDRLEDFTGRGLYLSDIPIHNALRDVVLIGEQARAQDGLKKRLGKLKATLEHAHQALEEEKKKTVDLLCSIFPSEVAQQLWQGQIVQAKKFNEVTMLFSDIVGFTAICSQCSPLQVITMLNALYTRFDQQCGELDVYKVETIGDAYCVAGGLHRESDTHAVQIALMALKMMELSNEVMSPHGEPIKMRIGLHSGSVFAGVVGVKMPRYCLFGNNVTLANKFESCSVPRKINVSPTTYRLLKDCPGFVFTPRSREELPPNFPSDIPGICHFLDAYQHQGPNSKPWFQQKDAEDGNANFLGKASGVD
Put plainly: Stimulation of recombinant soluble guanylate cyclase (sGC) in vitro, heme-containing enzyme. Type of experiment: biochemical. The text has this:
(§1) B-2. Stimulation of Recombinant Soluble Guanylate Cyclase (sGC) In Vitro:
Hoenicka, E. M. Becker, H. Apeler, T. Sirichoke, H. Schroeder, R. Gerzer and J.-P. Stasch, “Purified soluble guanylyl cyclase expressed in a baculovirus/Sf9 system: Stimulation by YC-1, nitric oxide, and carbon oxide”, J. Mol. Med. 77 (1999), 14-23. The heme-free guanylate cyclase is obtained by adding Tween 20 to the sample buffer (0.5% in the final concentration).
(§2) The activation of sGC by a test substance is reported as n-fold stimulation of the basal activity.

For experiment [3], the target named is T2, Heme-free sGC (Rattus norvegicus, UniProt P20595).
T2 construct: made in house; host or cells: baculovirus/Sf9
T2 sequence (P20595 1-619): T1 sequence (P20595 1-619)
T2 sequence (P19686 1-690 partner): T1 sequence (P19686 1-690 partner)
Nature of the experiment: Stimulation of recombinant soluble guanylate cyclase (sGC) in vitro, heme-free enzyme. The format is biochemical. The following applies: heme-free sGC (0.5% Tween 20). As to the method:
as §1
Investigations on the stimulation of recombinant soluble guanylate cyclase (sGC) by the compounds according to the invention with and without sodium nitroprusside, and with and without the heme-dependent sGC inhibitor 1H-1,2,4-oxadiazole-(4,3a)-quinoxalin-1-one (ODQ) are carried out by the method described in detail in the following reference: M. Hoenicka, E. M. Becker, H. Apeler, T. Sirichoke, H. Schroeder, R. Gerzer and J.-P. Stasch, “Purified soluble guanylyl cyclase expressed in a baculovirus/Sf9 system: Stimulation by YC-1, nitric oxide, and […]”, J. Mol. Med. 77 (1999), 14-23. The heme-free guanylate cyclase is obtained by adding Tween 20 to the sample buffer (0.5% in the final concentration).
as §2

For experiment [4], the target named is T3, recombinant guanylate cyclase reporter cell line (Rattus norvegicus, UniProt P20595).
T3 construct: expressed in transfected cells; host or cells: CHO
T3 sequence (P20595 1-619): T1 sequence (P20595 1-619)
T3 sequence (P19686 1-690 partner): T1 sequence (P19686 1-690 partner)
Nature of the experiment: sGC-activating activity in the CHO reporter cell in vitro. The format is cell-based. As to the method: B-3. Action at Recombinant Guanylate Cyclase Reporter Cell Lines
The cellular action of the compounds according to the invention is determined using a recombinant guanylate cyclase reporter cell line, as described in F. Wunder et al., Anal. Biochem. 339, 104-112 (2005).

Compound `O=C(O)c1ccc(CCC(/C=C/c2ccccc2OCCCN2CCCC2=O)Cc2ccc(C(=O)O)cc2)cc1` (single isomer, unassigned) [Example 3, 4-[(4E)-3-(4-Carboxybenzyl)-5-{2-[3-(2-oxopyrrolidin-1-yl)propoxy]phenyl}pent-4-en-1-yl]-benzoic acid] showed an IC50 in experiment [1] of 52 nM. Also, the “Stimulation (n-fold) of sGC, +0.1 μM DEA/NO” value turned out to be 23.3 n-fold in experiment [2] (0.01 μM Example 3), 34.7 n-fold in experiment [2] (0.1 μM Example 3), 41.6 n-fold in experiment [2] (1 μM Example 3) and 40.0 n-fold in experiment [2] (10 μM Example 3). Further, the “Stimulation (n-fold) of sGC, +10 μM ODQ” value in experiment [2] (0.01 μM Example 3) is given as 35.1 n-fold; in experiment [2] (0.1 μM Example 3) it was 98.0 n-fold; in experiment [2] (1 μM Example 3) it was 124 n-fold; in experiment [2] (10 μM Example 3), 134 n-fold. Moreover, the “Stimulation (n-fold) of sGC, Basal” value in experiment [2] (0.01 μM Example 3) came to 6.1 n-fold; in experiment [2] (0.1 μM Example 3), 11.6 n-fold; in experiment [2] (1 μM Example 3), 16.0 n-fold; in experiment [2] (10 μM Example 3), 18.9 n-fold. The “Synergy with the NO donor DEA/NO on sGC” value in experiment [2] (combination with DEA/NO) is “no synergistic effect”. Besides, the “Stimulation (n-fold) of heme-free sGC, Basal” value turned out to be 9.9 n-fold in experiment [3] (0.01 μM Example 3), 35.2 n-fold in experiment [3] (0.1 μM Example 3), 69.7 n-fold in experiment [3] (1 μM Example 3) and 74.6 n-fold in experiment [3] (10 μM Example 3). The “MEC (minimum effective concentration)” value in experiment [4] amounted to 1 nM.
